Source: ChEMBL document CHEMBL4334438, “Discovery of novel glycogen synthase kinase-3α inhibitors: Structure-based virtual screening, preliminary SAR and biological evaluation for treatment of acute myeloid leukemia” (Eur J Med Chem, 2019)

Tests used:
[1] = tested on: CDK18/Cyclin Y (Homo sapiens), Q07002+Q8ND76 [T166M]; test: Inhibition of recombinant full length human CDK18 /cyclinY T166M mutant assessed as residual activity at 1 uM using YRRAAVPPSPSLS as substrate incubated for 40 mins in presence of [gamma-33ATP] by scintillation counting based radiometry assay relative to control; type: protein-complex assay
[2] = target: Serine/threonine-protein kinase 32B (Homo sapiens) (UniProt Q9NY57); test: Inhibition of recombinant full-length human STK32B at 1 uM assessed as residual activity at 1 uM using casein as substrate measured after 120 mins in presence of [gamma33P]ATP by scintillation counting method relative to control
[3] = target: Ephrin type-B receptor 3 (Homo sapiens) (UniProt P54753); test: Inhibition of recombinant human EphB3 (599 to 920 residues) assessed as residual activity at 1 uM using poly(Glu, Tyr) 4:1 as substrate at 40 mins in presence of [gamma-33ATP] by scintillation counting based radiometry assay relative to control
[4] = target: Serine/threonine-protein kinase ULK2 (Homo sapiens) (UniProt Q8IYT8); test: Inhibition of human ULK2 (1 to 306 residues) assessed as residual activity at 1 uM using casein as substrate measured after 40 mins in presence of [gamma33P]ATP by scintillation counting method relative to control
Chain of Serine/threonine-protein kinase ULK2 (Homo sapiens) (Q8IYT8 whole entry, the tested form may be a part): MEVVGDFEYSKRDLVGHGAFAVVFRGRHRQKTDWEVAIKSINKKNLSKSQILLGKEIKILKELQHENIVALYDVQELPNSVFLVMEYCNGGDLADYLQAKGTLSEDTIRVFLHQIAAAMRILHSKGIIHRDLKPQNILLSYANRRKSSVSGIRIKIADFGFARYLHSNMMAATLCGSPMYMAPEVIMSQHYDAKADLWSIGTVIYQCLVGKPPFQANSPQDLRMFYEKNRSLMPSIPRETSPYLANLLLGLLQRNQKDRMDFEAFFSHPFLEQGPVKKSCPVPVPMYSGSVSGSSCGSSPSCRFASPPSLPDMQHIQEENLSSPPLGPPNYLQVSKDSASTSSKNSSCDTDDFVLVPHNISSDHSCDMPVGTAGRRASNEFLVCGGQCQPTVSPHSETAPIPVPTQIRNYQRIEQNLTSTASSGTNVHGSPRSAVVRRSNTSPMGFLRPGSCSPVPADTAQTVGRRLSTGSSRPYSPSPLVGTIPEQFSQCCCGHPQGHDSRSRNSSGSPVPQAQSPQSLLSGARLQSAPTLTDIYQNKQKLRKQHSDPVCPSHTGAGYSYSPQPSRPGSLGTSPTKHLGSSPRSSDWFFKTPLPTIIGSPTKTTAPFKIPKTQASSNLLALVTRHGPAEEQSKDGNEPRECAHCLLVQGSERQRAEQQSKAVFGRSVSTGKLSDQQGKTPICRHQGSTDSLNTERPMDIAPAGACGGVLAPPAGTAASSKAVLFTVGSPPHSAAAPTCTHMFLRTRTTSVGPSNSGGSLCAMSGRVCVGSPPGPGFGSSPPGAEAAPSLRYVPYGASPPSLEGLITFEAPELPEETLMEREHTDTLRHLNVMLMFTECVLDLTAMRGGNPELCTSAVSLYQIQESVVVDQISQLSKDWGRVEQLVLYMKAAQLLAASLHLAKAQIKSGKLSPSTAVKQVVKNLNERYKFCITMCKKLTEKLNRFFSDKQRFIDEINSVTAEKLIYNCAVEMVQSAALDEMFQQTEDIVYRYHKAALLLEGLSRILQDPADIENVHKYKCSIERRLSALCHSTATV

[5] = target: CDC7/Cyclin B1 (Homo sapiens) (UniProt P14635+O00311); test: Inhibition of recombinant full length human CDC7/CyclinB1 assessed as residual activity at 1 uM using Histone H1 as substrate incubated for 120 mins in presence of [gamma-33ATP] by scintillation counting based radiometry assay relative to control; type: protein-complex assay
[6] = target: Activin receptor type-1B (Homo sapiens) (UniProt P36896); test: Inhibition of human ALK4 (150 to end residues) assessed as residual activity at 1 uM using casein as substrate incubated for 40 mins in presence of [gamma-33ATP] by scintillation counting based radiometry assay relative to control
Chain of Activin receptor type-1B (Homo sapiens) (P36896 whole entry): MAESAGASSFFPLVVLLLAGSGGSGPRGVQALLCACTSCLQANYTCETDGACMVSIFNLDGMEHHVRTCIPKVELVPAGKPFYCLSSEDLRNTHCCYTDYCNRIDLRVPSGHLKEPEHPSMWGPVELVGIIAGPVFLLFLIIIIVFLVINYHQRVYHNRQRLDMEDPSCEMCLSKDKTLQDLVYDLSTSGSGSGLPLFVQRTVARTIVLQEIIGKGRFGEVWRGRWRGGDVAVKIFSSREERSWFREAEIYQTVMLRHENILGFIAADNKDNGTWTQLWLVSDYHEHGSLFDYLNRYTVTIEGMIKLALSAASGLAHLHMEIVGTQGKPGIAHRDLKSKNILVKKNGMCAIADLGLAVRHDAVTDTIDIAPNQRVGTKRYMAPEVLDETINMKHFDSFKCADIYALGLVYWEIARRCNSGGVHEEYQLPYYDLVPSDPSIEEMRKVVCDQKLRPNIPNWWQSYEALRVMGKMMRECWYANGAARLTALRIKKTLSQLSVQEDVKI

[7] = species: Homo sapiens; test: Inhibition of recombinant full length human PKBalpha S478G mutant assessed as residual activity at 1 uM using GRPRTSSFAEGKK as substrate measured after 40 mins in presence of [gamma33P]ATP by scintillation counting method relative to control
[8] = species: Homo sapiens; test: Inhibition of recombinant human full length PI3K p110alpha/p65alpha assessed as residual activity at 1 uM assessed as residual activity at 1 uM using phosphatidylinositol-4, 5-bisphosphate as substrate incubated for 40 mins in presence of [gamma33P]ATP by scintillation counting based radiometry assay relative to control
[9] = target: Tyrosine-protein kinase JAK1 (Homo sapiens) (UniProt P23458); test: Inhibition of human JAK1 (866 to end residues) assessed as residual activity at 1 uM using GEEPLYWSFPAKKK as substrate after 40 mins by [gamma-33ATP] radiometric assay relative to control
Chain of Tyrosine-protein kinase JAK1 (Homo sapiens) (P23458 whole entry): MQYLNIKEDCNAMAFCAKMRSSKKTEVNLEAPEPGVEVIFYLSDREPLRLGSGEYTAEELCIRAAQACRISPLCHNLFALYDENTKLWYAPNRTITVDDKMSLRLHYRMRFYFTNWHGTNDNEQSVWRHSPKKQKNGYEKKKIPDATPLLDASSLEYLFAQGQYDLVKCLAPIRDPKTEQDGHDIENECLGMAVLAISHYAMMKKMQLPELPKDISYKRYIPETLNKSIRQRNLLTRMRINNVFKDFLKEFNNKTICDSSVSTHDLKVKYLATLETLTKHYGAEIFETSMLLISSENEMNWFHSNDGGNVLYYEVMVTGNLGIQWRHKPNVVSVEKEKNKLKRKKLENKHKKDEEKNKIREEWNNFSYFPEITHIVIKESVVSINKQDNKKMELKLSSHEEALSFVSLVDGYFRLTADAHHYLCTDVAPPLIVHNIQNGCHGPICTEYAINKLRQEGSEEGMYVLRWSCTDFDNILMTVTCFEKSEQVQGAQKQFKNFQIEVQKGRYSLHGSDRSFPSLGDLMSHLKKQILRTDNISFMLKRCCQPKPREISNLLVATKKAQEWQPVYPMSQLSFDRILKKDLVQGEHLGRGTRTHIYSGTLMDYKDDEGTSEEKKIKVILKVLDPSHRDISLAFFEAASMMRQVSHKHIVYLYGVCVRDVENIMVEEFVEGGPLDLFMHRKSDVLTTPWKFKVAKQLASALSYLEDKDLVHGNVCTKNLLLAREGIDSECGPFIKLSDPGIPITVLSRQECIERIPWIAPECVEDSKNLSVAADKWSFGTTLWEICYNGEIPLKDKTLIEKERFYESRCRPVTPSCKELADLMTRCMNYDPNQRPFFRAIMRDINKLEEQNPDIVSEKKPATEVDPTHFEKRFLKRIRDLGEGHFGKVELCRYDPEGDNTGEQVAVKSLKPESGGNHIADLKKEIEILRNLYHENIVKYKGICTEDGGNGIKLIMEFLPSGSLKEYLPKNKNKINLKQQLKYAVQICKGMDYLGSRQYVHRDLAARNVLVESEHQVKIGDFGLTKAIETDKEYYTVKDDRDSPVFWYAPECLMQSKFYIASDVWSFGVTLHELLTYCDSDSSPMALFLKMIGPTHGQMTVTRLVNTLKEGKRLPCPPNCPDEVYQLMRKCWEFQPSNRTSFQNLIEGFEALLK

[10] = target: Dual specificity mitogen-activated protein kinase kinase 1 (Homo sapiens) (UniProt Q02750); test: Inhibition of recombinant human MEK1 assessed as residual activity at 1 uM using inactive MAPK2 as substrate incubated for 40 mins in presence of [gamma-33ATP by scintillation counting based radiometry assay relative to control
Chain of Dual specificity mitogen-activated protein kinase kinase 1 (Homo sapiens) (Q02750 whole entry): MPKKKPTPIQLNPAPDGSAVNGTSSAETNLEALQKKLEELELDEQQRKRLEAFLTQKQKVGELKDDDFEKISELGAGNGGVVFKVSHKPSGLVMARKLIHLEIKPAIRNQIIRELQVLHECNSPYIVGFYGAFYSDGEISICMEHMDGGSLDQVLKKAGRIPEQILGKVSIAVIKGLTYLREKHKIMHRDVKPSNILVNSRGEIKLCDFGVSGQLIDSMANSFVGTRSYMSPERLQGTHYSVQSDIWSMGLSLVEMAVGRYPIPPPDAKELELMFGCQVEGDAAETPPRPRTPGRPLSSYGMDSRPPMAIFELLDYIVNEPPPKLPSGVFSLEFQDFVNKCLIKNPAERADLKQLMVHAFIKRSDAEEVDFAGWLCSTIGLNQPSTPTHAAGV

[11] = target: Serine/threonine-protein kinase 3 (Homo sapiens) (UniProt Q13188); test: Inhibition of recombinant full-length human MST2 (2 to end residues) assessed as residual activity at 1 uM using myelin basic protein as substrate measured after 40 mins in presence of [gamma33P]ATP by scintillation counting method relative to control
Chain of Serine/threonine-protein kinase 3 (Homo sapiens) (Q13188 whole entry): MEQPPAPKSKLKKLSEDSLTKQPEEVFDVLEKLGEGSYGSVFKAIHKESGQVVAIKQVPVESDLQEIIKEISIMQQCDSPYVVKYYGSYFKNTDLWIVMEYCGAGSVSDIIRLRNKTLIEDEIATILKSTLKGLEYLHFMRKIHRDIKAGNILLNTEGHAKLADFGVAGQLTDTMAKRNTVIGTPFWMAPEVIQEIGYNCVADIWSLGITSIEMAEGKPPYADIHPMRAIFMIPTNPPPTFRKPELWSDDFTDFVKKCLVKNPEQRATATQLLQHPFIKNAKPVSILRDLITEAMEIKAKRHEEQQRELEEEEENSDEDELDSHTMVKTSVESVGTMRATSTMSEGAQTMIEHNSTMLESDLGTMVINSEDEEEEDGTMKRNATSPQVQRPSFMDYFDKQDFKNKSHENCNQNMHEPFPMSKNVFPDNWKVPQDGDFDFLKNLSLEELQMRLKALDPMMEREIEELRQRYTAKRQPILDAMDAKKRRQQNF

[12] = species: Homo sapiens; test: Inhibition of recombinant full-length human PI3K p120gamma R459Q mutant at 1 uM assessed as residual activity at 1 uM using phosphatidylinositol-4, 5-bisphosphate as substrate measured after 40 mins by fluorescence assay
[13] = tested on: Mitogen-activated protein kinase 14 (Homo sapiens), Q16539 [T106M]; test: Inhibition of recombinant human full length SAPK2a T106M mutant assessed as residual activity at 1 uM using myelin basic protein as substrate measured after 40 mins in presence of [gamma33P]ATP by scintillation counting method relative to control
Chain of Mitogen-activated protein kinase 14 (Homo sapiens), Q16539 [T106M] (Q16539 whole entry T106M): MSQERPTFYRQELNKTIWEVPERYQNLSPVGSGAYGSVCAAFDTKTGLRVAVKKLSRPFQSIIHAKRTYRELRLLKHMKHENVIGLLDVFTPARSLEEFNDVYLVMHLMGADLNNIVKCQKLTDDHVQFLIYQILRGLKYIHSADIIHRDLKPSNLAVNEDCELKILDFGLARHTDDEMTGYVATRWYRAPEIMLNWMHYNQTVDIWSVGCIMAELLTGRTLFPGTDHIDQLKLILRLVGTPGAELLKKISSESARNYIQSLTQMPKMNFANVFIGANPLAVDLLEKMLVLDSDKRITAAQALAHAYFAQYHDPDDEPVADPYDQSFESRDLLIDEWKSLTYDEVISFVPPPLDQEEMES

[14] = target: Cyclin-dependent kinase 13/Cyclin-K (Homo sapiens) (UniProt Q14004+O75909); test: Inhibition of recombinant full length human CDK13/cyclinK assessed as residual activity at 1 uM using RSRSRSRSRSRSRSR as substrate incubated for 120 mins in presence of [gamma-33ATP] by scintillation counting based radiometry assay relative to control; type: protein-complex assay
[15] = target: CDK9/cyclin T1 (Homo sapiens) (UniProt O60563+P50750); test: Inhibition of recombinant full length human CDK9/cyclinT1 assessed as residual activity at 1 uM using KTFCGTPEYLAPEVRREPRILSEEEQEMFRDFDYIADWC as substrate incubated for 40 mins in presence of [gamma-33ATP] by scintillation counting based radiometry assay relative to control; type: protein-complex assay
[16] = target: BDNF/NT-3 growth factors receptor (Homo sapiens) (UniProt Q16620); test: Inhibition of human TrkB (455 to end residues) assessed as residual activity at 1 uM using poly(Glu, Tyr) 4:1 as substrate measured after 40 mins in presence of [gamma33P]ATP by scintillation counting method relative to control
[17] = target: Dual specificity tyrosine-phosphorylation-regulated kinase 3 (Homo sapiens) (UniProt O43781); test: Inhibition of recombinant human DYRK3 assessed as residual activity at 1 uM using RRRFRPASPLRGPPK as substrate at 40 mins in presence of [gamma-33ATP] by scintillation counting based radiometry assay relative to control
[18] = target: Serine/threonine-protein kinase 17A (Homo sapiens) (UniProt Q9UEE5); test: Inhibition of recombinant human DRAK1 assessed as residual activity at 1 uM using KKLNRTLSFAEPG as substrate at 40 mins in presence of [gamma-33ATP] by scintillation counting based radiometry assay relative to control
[19] = target: G protein-coupled receptor kinase 5 (Homo sapiens) (UniProt P34947); test: Inhibition of recombinant full length human GRK5 assessed as residual activity at 1 uM using casein as substrate at 40 mins in presence of [gamma-33ATP] by scintillation counting based radiometry assay relative to control
[20] = target: CDK3/Cyclin E (Homo sapiens) (UniProt P24864+Q00526); test: Inhibition of recombinant full length human CDK3/CyclinE assessed as residual activity at 1 uM using Histone H1 as substrate incubated for 40 mins in presence of [gamma-33ATP] by scintillation counting based radiometry assay relative to control; type: protein-complex assay
Chain of CDK3/Cyclin E (Homo sapiens) (P24864 whole entry, looked up, the tested form may be a part): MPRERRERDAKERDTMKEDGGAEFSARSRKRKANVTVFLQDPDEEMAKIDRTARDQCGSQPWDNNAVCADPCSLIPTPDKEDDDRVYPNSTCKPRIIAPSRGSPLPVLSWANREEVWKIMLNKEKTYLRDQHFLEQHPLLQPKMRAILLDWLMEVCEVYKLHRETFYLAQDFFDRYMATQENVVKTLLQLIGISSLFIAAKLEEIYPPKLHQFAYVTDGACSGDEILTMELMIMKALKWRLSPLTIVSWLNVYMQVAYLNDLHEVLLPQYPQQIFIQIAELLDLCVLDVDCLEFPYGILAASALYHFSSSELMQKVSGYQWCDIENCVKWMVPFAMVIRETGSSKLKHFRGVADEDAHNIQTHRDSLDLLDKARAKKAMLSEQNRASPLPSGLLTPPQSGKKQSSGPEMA
Chain of CDK3/Cyclin E (Homo sapiens) (Q00526 whole entry, looked up, the tested form may be a part): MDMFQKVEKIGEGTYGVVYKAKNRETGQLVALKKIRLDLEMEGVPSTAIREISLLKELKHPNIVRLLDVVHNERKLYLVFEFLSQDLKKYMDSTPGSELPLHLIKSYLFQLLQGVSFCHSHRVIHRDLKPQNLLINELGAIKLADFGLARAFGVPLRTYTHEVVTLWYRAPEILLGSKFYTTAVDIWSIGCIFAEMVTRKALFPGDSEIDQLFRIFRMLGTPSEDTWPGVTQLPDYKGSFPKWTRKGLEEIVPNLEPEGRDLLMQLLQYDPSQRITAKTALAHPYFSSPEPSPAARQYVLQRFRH

[21] = target: Epithelial discoidin domain-containing receptor 1 (Homo sapiens) (UniProt Q08345); test: Inhibition of recombinant human DDR1 (492 to end residues) assessed as residual activity at 1 uM using KKKSPGEYVNIEFG as substrate at 40 mins in presence of [gamma-33ATP] by scintillation counting based radiometry assay relative to control
[22] = target: Tyrosine-protein kinase JAK2 (Homo sapiens) (UniProt O60674); test: Inhibition of human JAK2 (808 to end residues) assessed as residual activity at 1 uM using KTFCGTPEYLAPEVRREPRILSEEEQEMFRDFDYIADWC as substrate after 40 mins by [gamma-33ATP] radiometric assay relative to control

SMILES	Activity [1]	Activity [2]	Activity [3]	Activity [4]	Activity [5]	Activity [6]	Activity [7]	Activity [8]	Activity [9]	Activity [10]	Activity [11]	Activity [12]	Activity [13]	Activity [14]	Activity [15]	Activity [16]	Activity [17]	Activity [18]	Activity [19]	Activity [20]	also measured
C=CCOC(=O)c1cc(-c2ccc(/C=C3/NC(=S)NC3=O)o2)ccc1Cl	87%	86%	104%	103%	93%	105%	97%	85%	106%	96%	92%	93%	100%	96%	86%	92%	104%	83%	79%	88%	Activity [21]: 106%; Activity [22]: 108%
N=C1NC(=O)/C(=C\c2ccc(-c3cccc([N+](=O)[O-])c3)o2)S1	57%	102%	106%	102%	82%	109%	97%	100%	96%	88%	98%	93%	80%	102%	74%	98%	76%	80%	100%	80%	Activity [21]: 99%; Activity [22]: 102%
